Results as given in patent US10844013B2, “Phenyl amino piperidine mTORC inhibitors and uses thereof” (Navitor Pharmaceuticals, Inc., priority 2016, dated 2020).
Counter-ions that a name gives are not always drawn.

Assays:
[1] = system: pAKT (p-Akt 1/2/3 (Ser473)) in MCF-7 cells; assay: AlphaLISA Ultra pAKT assay; format: cell-based; details: Homo sapiens, MCF7, 2 hours compound incubation
Protocol: Example 156: AlphaLISA Ultra pAKT Assay
(§1) Assay Protocol: • 1. MCF-7 cells in Corning 3701 plate and incubate for 20-24 hour. 16,000-20,000 cells will be seeded in 36 μL medium per well. • 2. Change the culture medium with fresh medium and incubate for another 2 hours. • 3. Add 12 μL (4×) compounds into the cell plate by HAMILTON. Final DMSO concentration is 0.5%. Incubate for 2 hours. • 4. Aspirate 38 j L by HAMILTON, 10 μL rest per well. • 5. Add 10 μL 2× lysis buffer using HAMILTON; total volume in wells is 20 μL. Allow cells to shake for 30 min. Cover plate by plastic foil and store plate at −80° C. up to analysis. • 6. Thaw cell lysate at RT and transfer 10 ul lysate to assay plate (Optiplate-384). • 7. Add 5 ul acceptor beads into assay plate and incubation for 2 hours • 8. Add 5 ul donor beads and incubation for 2 hours • 9. Count the plate by EnSpire Multimode Plate Reader

[2] = system: pS6K1 (p-p70 S6 Kinase (Thr389)) in MCF-7 cells; assay: AlphaLISA Ultra pS6K1 assay; format: cell-based; details: Homo sapiens, MCF7, 2 h, 2 hours compound incubation
Protocol: Example 155: AlphaLISA Ultra pS6K1 assay
as §1, with “1. Seed” for “1.”, “20˜24” for “20-24”, “12,000˜16,000” for “16,000-20,000”, “μL” for “j L”

| Compound | IC50 [1] | IC50 [2] |
| --- | --- | --- |
| Cc1cc(C)c(C(=O)N2CCN(c3cccc(F)c3S(N)(=O)=O)CC2)nc1NC1CCN(c2ccccc2C#N)CC1 [I-16, 2-(4-(6-(1-(2-Cyanophenyl)piperidin-4-ylamino)-3,5-dimethylpicolinoyl)piperazin-1-yl)-6-fluorobenzenesulfonamide] | > 10000 nM | 10 to 1000 nM |
| Cc1cc(C)c(C(=O)N2CCN(c3ccccc3C#N)CC2)cc1NC1CCN(c2cccc(Cl)c2)CC1 [I-17, 2-(4-(5-(1-(3-Chlorophenyl)piperidin-4-ylamino)-2,4-dimethylbenzoyl)piperazin-1-yl)benzonitrile] | > 10000 nM | 1000 to 3000 nM |
| Cc1cc(C)c(C(=O)N2CCN(c3ccccc3C#N)CC2)cc1NC1CCN(c2cccc(C#N)c2)CC1 [I-18, 2-(4-(5-(1-(3-Cyanophenyl)piperidin-4-ylamino)-2,4-dimethylbenzoyl)piperazin-1-yl)benzonitrile trifluoroacetate] | > 10000 nM | 1000 to 3000 nM |
| Cc1cc(C)c(C(=O)N2CCN(c3cccc(F)c3S(=O)(=O)N=C(N(C)C)N(C)C)CC2)cc1NC1CCN(c2ccccc2C#N)CC1 [I-19, 2-{2-[4-(5-{[1-(2-cyanophenyl)piperidin-4-yl]amino}-2,4-dimethylbenzoyl)piperazin-1-yl]-6-fluorobenzenesulfonyl}-1,1,3,3-tetramethylguanidine] | > 10000 nM | 1000 to 3000 nM |
| Cc1cc(C)c(C(=O)N2CCN(c3ccccc3)[C@H](C(C)(C)O)C2)cc1NC1CCN(c2ccccc2C#N)CC1 [I-20] | > 10000 nM | 1000 to 3000 nM |
| Cc1cc(C)c(C(=O)N2CCN(c3ccccc3)[C@@H](C(C)(C)O)C2)cc1NC1CCN(c2ccccc2C#N)CC1 [I-21] | > 10000 nM | 3000 to 5000 nM |
| CCCN(c1cc(C(=O)N2CCN(c3ccccc3S(N)(=O)=O)CC2)c(C)cc1C)C1CCN(c2ccccc2C#N)CC1 [I-23, 2-(4-(5-((1-(2-Cyanophenyl)piperidin-4-yl)(propyl)amino)-2,4-dimethylbenzoyl)piperazin-1-yl)benzenesulfonamide] | > 10000 nM | 1000 to 3000 nM |
| Cc1cc(C)c(N(CC(N)=O)C2CCN(c3ccccc3C#N)CC2)cc1C(=O)N1CCN(c2ccccc2S(N)(=O)=O)CC1 [I-27, 2-((1-(2-Cyanophenyl)piperidin-4-yl)(2,4-dimethyl-5-(4-(2-sulfamoylphenyl)piperazine-1-carbonyl)phenyl)amino)acetamide] | > 10000 nM | 1000 to 3000 nM |
| Cc1cc(C)c(C(=O)N2CCN(c3ncccc3C(N)=O)CC2)cc1NC1CCN(c2ccccc2C#N)CC1 [I-28] | > 10000 nM | 1000 to 3000 nM |
| Cc1cc(C)c(C(=O)N2CCN(c3ccccc3C(N)=O)CC2)cc1NC1CCN(c2ccccc2C#N)CC1 [I-29] | > 10000 nM | 10 to 1000 nM |
| Cc1cc(C)c(C(=O)N2CCN(c3ccccn3)[C@@H](CO)C2)cc1NC1CCN(c2ccccc2C#N)CC1 [I-30] | > 10000 nM | 10 to 1000 nM |
| Cc1cc(C)c(C(=O)N2CCN(c3ccccc3)C(C(N)=O)C2)cc1NC1CCN(c2ccccc2C#N)CC1 (stereo not drawn) [I-31, 4-(5-{[1-(2-cyanophenyl)piperidin-4-yl]amino}-2,4-dimethylbenzoyl)-1-phenylpiperazine-2-carboxamide] | > 10000 nM | 10 to 1000 nM |
| CNC(=O)C1CN(C(=O)c2cc(NC3CCN(c4ccccc4C#N)CC3)c(C)cc2C)CCN1c1ccccc1 (stereo not drawn) [I-32, 4-(5-{[1-(2-cyanophenyl)piperidin-4-yl]amino}-2,4-dimethylbenzoyl)-N-methyl-1-phenylpiperazine-2-carboxamide] | > 10000 nM | 1000 to 3000 nM |
| Cc1cc(C)c(C(=O)N2CCN(c3ccccc3)[C@@H](C)C2)cc1NC1CCN(c2ccccc2C#N)CC1 [I-33, (S)-2-(4-(2,4-Dimethyl-5-(3-methyl-4-phenylpiperazine-1-carbonyl)phenylamino)piperidin-1-yl)benzonitrile] | > 10000 nM | 5000 to 10000 nM |
| Cc1cc(C)c(C(=O)N2CCN(c3ccccn3)[C@@H](C)C2)cc1NC1CCN(c2ccccc2C#N)CC1 [I-34, 2-[4-[2,4-Dimethyl-5-[(3S)-3-methyl-4-(2-pyridyl)piperazine-1-carbonyl]anilino]-1-piperidyl]benzonitrile] | > 10000 nM | 1000 to 3000 nM |
| Cc1cccc(N2CCN(C(=O)c3cc(NC4CCN(c5ccccc5Cl)CC4)c(C)cc3C)CC2)n1 [I-35, (5-(1-(2-chlorophenyl)piperidin-4-ylamino)-2,4-dimethylphenyl) (4-(6-methylpyridin-2-yl)piperazin-1-yl) methanone] | > 10000 nM | 3000 to 5000 nM |
| Cc1cc(C)c(C(=O)N2CCN(c3ccc(F)cn3)CC2)cc1NC1CCN(c2ccccc2Cl)CC1 [I-36, (5-(1-(2-Chlorophenyl)piperidin-4-ylamino)-2,4-dimethylphenyl)(4-(5-fluoropyridin-2-yl)piperazin-1-yl)methanone] | > 10000 nM | 5000 to 10000 nM |
| Cc1cc(C)c(C(=O)N2CCN(c3ccccc3C#N)CC2)cc1NC1CCN(c2ccccc2Cl)CC1 [I-37, 2-(4-(5-(1-(2-Chlorophenyl)piperidin-4-ylamino)-2,4-dimethylbenzoyl)piperazin-1-yl)benzonitrile] | > 10000 nM | 1000 to 3000 nM |
| Cc1cc(C)c(C(=O)N2CCN(c3ccccc3)C(C(=O)O)C2)cc1NC1CCN(c2ccccc2C#N)CC1 (stereo not drawn) [I-39, 4-(5-{[1-(2-cyanophenyl)piperidin-4-yl]amino}-2,4-dimethylbenzoyl)-1-phenylpiperazine-2-carboxylic Acid] | > 10000 nM | > 10000 nM |
| Cc1cc(C)c(C(=O)N2CCN(c3ccccc3S(N)(=O)=O)CC2)c(C)c1NC1CCN(c2ccccc2C#N)CC1 [I-42] | > 10000 nM | 10 to 1000 nM |

Now from value to molecule:

| IC50 [1] | IC50 [2] | Compound |
| --- | --- | --- |
| > 10000 nM | 10 to 1000 nM | Cc1cc(C)c(C(=O)N2CCN(c3ccccc3S(C)(=N)=O)CC2)nc1NC1CCN(c2ccccc2C#N)CC1 (single isomer, unassigned) [I-126, 2-(4-(3,5-Dimethyl-6-(4-(2-(S-methylsulfonimidoyl)phenyl)piperazine-1-carbonyl)pyridin-2-ylamino)piperidin-1-yl)benzonitrile] |
| > 10000 nM | 1000 to 3000 nM | CNC(=O)c1ccccc1N1CCN(C(=O)c2cc(NC3CCN(c4ccccc4C#N)CC3)c(C)cc2C)C[C@@H]1CO (single isomer, unassigned) [I-133] |
| > 10000 nM | 1000 to 3000 nM | CNC(=O)c1ccccc1N1CCN(C(=O)c2cc(NC3CCN(c4ccccc4C#N)CC3)c(C)cc2C)C[C@H]1CO (single isomer, unassigned) [I-134] |
| > 10000 nM | 1000 to 3000 nM | COc1cccc(N2CCC(Nc3cc(C(=O)N4CCN(c5ccccc5S(N)(=O)=O)CC4)c(C)cc3C)CC2)c1 [I-5, 2-(4-(5-(1-(3-Methoxyphenyl)piperidin-4-ylamino)-2,4-dimethylbenzoyl)piperazin-1-yl) benzenesulfonamide] |
| > 10000 nM | 1000 to 3000 nM | Cc1cc(C)c(C(=O)N2CCN(C(=O)OC(C)(C)C)[C@@H](CO)C2)cc1NC1CCN(c2ccccc2C#N)CC1 [I-7, (R)-tert-Butyl 4-(5-(1-(2-cyanophenyl)piperidin-4-ylamino)-2,4-dimethylbenzoyl)-2-(hydroxymethyl) piperazine-1-carboxylate] |
| > 10000 nM | > 10000 nM | Cc1cc(C)c(C(=O)N2CCN[C@H](CO)C2)cc1NC1CCN(c2ccccc2C#N)CC1 [I-8, (S)-2-(4-(5-(3-(hydroxymethyl)piperazine-1-carbonyl)-2,4-dimethylphenylamino)piperidin-1-yl)benzonitrile] |
| > 10000 nM | 1000 to 3000 nM | Cc1cc(C)c(C(=O)N2CCN(C(=O)OC(C)(C)C)[C@H](CO)C2)cc1NC1CCN(c2ccccc2C#N)CC1 [I-9, (S)-tert-butyl 4-(5-(1-(2-cyanophenyl)piperidin-4-ylamino)-2,4-dimethylbenzoyl)-2-(hydroxymethyl)piperazine-1-carboxylate] |
| > 10000 nM | 1000 to 3000 nM | CCN(c1cc(C(=O)N2CCN(c3ccccc3S(N)(=O)=O)CC2)c(C)cc1C)C1CCN(c2ccccc2C#N)CC1C (stereo not drawn) [I-10, 2-(4-(5-((1-(2-Cyanophenyl)-3-methylpiperidin-4-yl)(ethyl)amino)-2,4-dimethylbenzoyl)piperazin-1-yl)benzenesulfonamide] |
| > 10000 nM | 3000 to 5000 nM | Cc1ccc(C(=O)N2CCN(c3ccccc3S(N)(=O)=O)CC2)cc1NC1CCN(c2ccccc2C#N)CC1 [I-11] |
| > 10000 nM | 3000 to 5000 nM | Cc1nc(C)c(C(=O)N2CCN(c3ccccc3C#N)CC2)cc1NC1CCN(c2ccccc2C#N)CC1 [I-13, 2-(4-(5-(4-(2-Cyanophenyl)piperazine-1-carbonyl)-2,6-dimethylpyridin-3-ylamino)piperidin-1-yl)benzonitrile] |
